According to patent US20240174622A1, “COMPOUND AND RADIOACTIVE LABELING COMPOUND” (NIHON MEDI-PHYSICS CO., LTD., priority 2021, published 2024):
Several values for one entry are separate records, joined by “and”; a condition that tells them apart may be missing. Identical values can stand only once.

How the values were obtained:
[1] = test system: LNCaP tumor-transplanted mouse; test: Internal radioactivity distribution using LNCaP tumor-transplanted mouse; format: in vivo
In short: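 Male SCID mice bearing subcutaneous LNCaP or PC-3 xenografts (40–60 days) received the 111In-labelled compound i.v. via tail vein (185–259 kBq in saline; n=2–3). Blood and organs collected at 1 to 192 hours post-dose, weighed and counted. Uptake expressed as %ID/g.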

[2] = target: T1, plasma albumin (mouse plasma) (Mus musculus, UniProt P07724); test: Evaluation of binding to albumin (mouse plasma); conditions: left to stand in mouse plasma
T1 construct: from tissue; host or cells: mouse plasma
Protocol: A PBS solution (37 kBq, 50 μL) of [^111In]In-PSMA-DA1 or [^111In]In-PSMA-DB was added to 200 μL of PBS, mouse plasma, human plasma, or a human serum albumin (HSA) solution (45 mg/mL) in PBS, respectively, and the mixtures were allowed to stand at 37° C. for 10 minutes. Thereafter, the reaction liquids were added to a spin column ([…]; manufactured by Cytiva), and centrifuged at 1500×g at 4° C. for 2 minutes. After separation, the radioactivity for each of the column and the eluate was measured with a gamma counter.
When a compound to be evaluated binds to albumin to form a composite, the compound passes through the column because of the increased molecular size.
As in Example 1-1 described above, PBS, mouse plasma, human plasma, and human albumin were used to evaluate binding to albumin. Evaluation was carried out by the same experimental procedure and statistical method as in Example 1-1, except that a PBS solution (37 kBq, 50 μL) of [^111In]In-PtDA was used.
Thereafter, the reaction liquid was added to a spin column (Sephadex G-50; manufactured by Cytiva), and centrifuged at 1500×g at 4° C. for 2 minutes. After separation, the radioactivity of the column and the eluate was measured with a gamma counter.

T1 sequence (P07724 25-608): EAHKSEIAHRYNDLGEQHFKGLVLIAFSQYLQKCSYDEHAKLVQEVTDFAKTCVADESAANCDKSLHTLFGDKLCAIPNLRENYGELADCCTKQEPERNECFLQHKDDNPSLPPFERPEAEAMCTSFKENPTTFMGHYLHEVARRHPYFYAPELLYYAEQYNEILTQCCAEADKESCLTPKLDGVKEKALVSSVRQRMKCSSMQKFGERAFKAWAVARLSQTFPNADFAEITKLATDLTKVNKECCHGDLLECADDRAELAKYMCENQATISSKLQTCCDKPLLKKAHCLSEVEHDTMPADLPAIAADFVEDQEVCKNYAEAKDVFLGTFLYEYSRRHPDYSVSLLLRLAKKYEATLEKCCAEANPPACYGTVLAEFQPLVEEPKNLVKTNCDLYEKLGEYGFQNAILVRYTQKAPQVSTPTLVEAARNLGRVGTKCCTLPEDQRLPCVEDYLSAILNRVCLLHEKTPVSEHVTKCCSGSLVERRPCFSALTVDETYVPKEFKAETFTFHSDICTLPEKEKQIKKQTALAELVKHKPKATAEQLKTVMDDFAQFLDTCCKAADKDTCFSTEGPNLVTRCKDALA

Which results are given for `O=C(O)CC[C@H](NC(=O)N[C@@H](CCCCNC(=O)[C@H](Cc1ccc2ccccc2c1)NC(=O)[C@H]1CC[C@H](CNC(=O)CCC(C(=O)O)N2CCN(CC(=O)O)CCN(C(CCC(=O)N[C@@H](CCCCNC(=O)CCCc3ccc(I)cc3)C(=O)O)C(=O)O)CCN(CC(=O)O)CC2)CC1)C(=O)O)C(=O)O` (some centres unmarked) [[^111In]In-PSMA-NAT-DA1, metal not drawn]?
Blood ([1]; 1 h after administration): 39.8 ± 2.91 % ID/g; Brain ([1]; 1 h after administration): 0.63 ± 0.03 % ID/g; Heart ([1]; 1 h after administration): 10.8 ± 1.31 % ID/g; Intestine ([1]; 1 h after administration): 3.40 ± 0.24 % ID/g; Kidney ([1]; 1 h after administration): 41.5 ± 4.27 % ID/g; LNCaP Tumor ([1]; 1 h after administration): 23.0 ± 2.20 % ID/g; Liver ([1]; 1 h after administration): 8.24 ± 2.38 % ID/g; Lung ([1]; 1 h after administration): 28.1 ± 8.65 % ID/g; Muscle ([1]; 1 h after administration): 2.82 ± 0.55 % ID/g; Pancreas ([1]; 1 h after administration): 7.32 ± 1.27 % ID/g; Spleen ([1]; 1 h after administration): 31.2 ± 2.84 % ID/g; Stomach (% ID) ([1]; 1 h after administration): 0.94 ± 0.35 % ID; Blood ([1]; 4 h after administration): 38.8 ± 8.25 % ID/g; Brain ([1]; 4 h after administration): 0.83 ± 0.20 % ID/g; Heart ([1]; 4 h after administration): 12.2 ± 2.44 % ID/g; Intestine ([1]; 4 h after administration): 3.47 ± 0.42 % ID/g; Kidney ([1]; 4 h after administration): 66.2 ± 13.0 % ID/g; LNCaP Tumor ([1]; 4 h after administration): 43.6 ± 8.49 % ID/g; Liver ([1]; 4 h after administration): 8.38 ± 2.27 % ID/g; Lung ([1]; 4 h after administration): 26.5 ± 5.70 % ID/g; Muscle ([1]; 4 h after administration): 3.69 ± 0.83 % ID/g; Pancreas ([1]; 4 h after administration): 5.85 ± 1.34 % ID/g; Spleen ([1]; 4 h after administration): 23.0 ± 3.16 % ID/g; Stomach (% ID) ([1]; 4 h after administration): 1.32 ± 0.19 % ID; Blood ([1]; 24 h after administration): 10.9 ± 5.55 % ID/g; Brain ([1]; 24 h after administration): 0.27 ± 0.13 % ID/g; Heart ([1]; 24 h after administration): 3.14 ± 1.52 % ID/g; Intestine ([1]; 24 h after administration): 1.26 ± 0.70 % ID/g; Kidney ([1]; 24 h after administration): 37.1 ± 19.3 % ID/g; LNCaP Tumor ([1]; 24 h after administration): 51.9 ± 39.3 % ID/g; Liver ([1]; 24 h after administration): 2.73 ± 1.08 % ID/g; Lung ([1]; 24 h after administration): 8.76 ± 4.02 % ID/g; Muscle ([1]; 24 h after administration): 1.23 ± 0.36 % ID/g; Spleen ([1]; 24 h after administration): 13.5 ± 8.18 % ID/g; Stomach (% ID) ([1]; 24 h after administration): 0.28 ± 0.16 % ID; Blood ([1]; 48 h after administration): 12.3 % ID/g and 12.3 ± 1.56 % ID/g; Brain ([1]; 48 h after administration): 0.45 ± 0.03 % ID/g; Heart ([1]; 48 h after administration): 4.68 ± 0.92 % ID/g; Intestine ([1]; 48 h after administration): 1.39 ± 0.06 % ID/g; Kidney ([1]; 48 h after administration): 79.0 ± 6.78 % ID/g; LNCaP Tumor ([1]; 48 h after administration): 131.6 ± 22.0 % ID/g; Liver ([1]; 48 h after administration): 4.49 ± 0.71 % ID/g; Lung ([1]; 48 h after administration): 11.1 ± 2.24 % ID/g; Muscle ([1]; 48 h after administration): 1.48 ± 0.31 % ID/g; Pancreas ([1]; 48 h after administration): 2.26 ± 0.15 % ID/g; Spleen ([1]; 48 h after administration): 17.8 ± 1.05 % ID/g; Stomach (% ID) ([1]; 48 h after administration): 0.44 ± 0.09 % ID; Blood ([1]; 96 h after administration): 4.07 ± 1.37 % ID/g; Brain ([1]; 96 h after administration): 0.18 ± 0.04 % ID/g; Heart ([1]; 96 h after administration): 2.10 ± 0.83 % ID/g; Intestine ([1]; 96 h after administration): 0.86 ± 0.54 % ID/g; Kidney ([1]; 96 h after administration): 22.0 ± 14.9 % ID/g; LNCaP Tumor ([1]; 96 h after administration): 56.2 ± 35.6 % ID/g; Liver ([1]; 96 h after administration): 2.31 ± 0.89 % ID/g; Lung ([1]; 96 h after administration): 4.55 ± 2.33 % ID/g; Muscle ([1]; 96 h after administration): 0.59 ± 0.09 % ID/g; Pancreas ([1]; 96 h after administration): 2.60 ± 3.18 % ID/g; Spleen ([1]; 96 h after administration): 6.33 ± 5.25 % ID/g; Stomach (% ID) ([1]; 96 h after administration): 0.19 ± 0.10 % ID; Blood ([1]; 192 h after administration): 2.47 ± 0.52 % ID/g; Heart ([1]; 192 h after administration): 1.19 ± 0.24 % ID/g; Intestine ([1]; 192 h after administration): 0.55 ± 0.15 % ID/g; Kidney ([1]; 192 h after administration): 11.9 ± 2.08 % ID/g; LNCaP Tumor ([1]; 192 h after administration): 35.0 ± 27.3 % ID/g; Liver ([1]; 192 h after administration): 2.25 ± 0.45 % ID/g; Lung ([1]; 192 h after administration): 2.81 ± 0.36 % ID/g; Muscle ([1]; 192 h after administration): 0.33 ± 0.05 % ID/g; Pancreas ([1]; 192 h after administration): 0.94 ± 0.32 % ID/g; Spleen ([1]; 192 h after administration): 3.77 ± 0.54 % ID/g; Stomach (% ID) ([1]; 192 h after administration): 0.12 ± 0.01 % ID; radioactivity in the eluate (in words) [2]: significantly high
